This assay concerns the target Glutamate receptor ionotropic, AMPA (Rattus norvegicus, UniProt P19490+P19491+P19492+P19493). The assay can be described thus: Tested for inhibition of Specific DL-[H]Ionotropic glutamate receptor AMPA binding to rat brain membranes. Format: cell membranes, Membrane.

Molecules are shown by their SMILES.

In general, IC50 refers to the concentration at which inhibition is half-maximal. A low value points to inhibition by little substance.

For the compound `COc1noc(C)c1CC(N)C(=O)O` (stereo unspecified), the IC50 was greater than 100 µM.

The record behind these values is ChEMBL document CHEMBL1122476 (J Med Chem, 1983).
